Reference: US10647680B2, “Urea compound, preparation method therefor and medical use thereof” (Ancureall Pharmaceutical (Shanghai) Co., Ltd., priority 2016, dated 2020)

How the values were obtained:
RS4; 11 (FLT3 wild type) = assay: In vitro growth inhibition (GI50), RS4; 11; assay type: cell-based, human; settings: Homo sapiens, RS4-11; Cell lines of leukemia; read-out: GI 50 RS4: 11 FLT3 (WT)
[1] = test system: MOLM-13 (FLT3 ITD+/− mutant type); assay: In vitro growth inhibition (GI50), MOLM-13; assay type: cell-based, human; settings: Homo sapiens, MOLM-13; Cell lines of leukemia; read-out: GI 50 MOLM-13 FLT3 (ITD+/−)
[2] = test system: MV4-11 (FLT3 ITD+/+ mutant type); assay: In vitro growth inhibition (GI50), MV4-11; assay type: cell-based, human; settings: Homo sapiens, MV4-11; Cell lines of leukemia; read-out: GI 50 MV4-11 FLT3 (ITD +/+)
HL-60 (FLT3 wild type) = assay: In vitro growth inhibition (GI50), HL-60; assay type: cell-based; settings: Homo sapiens, Cell lines of leukemia, read-out: GI 50 HL60 FLT3 (WT)
Outline: (§1)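 Cells in RPMI1640 with 10% FBS, seeded at 5–10×10^4 cells/mL, exposed next day to compound at 5,000 nM down to 0.01 nM (2- or 10-fold dilutions, ≤1% solvent) for 3–5 days at 37 °C. CCK8 absorbance at 450 nm, growth rate relative to pre-treatment and solvent controls, GI50 from concentration–growth curve.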

[3] = test system: RAMOS (positive expression of Brutons tyrosine protein kinase); assay: In vitro growth inhibition (GI50), RAMOS; assay type: cell-based; settings: Homo sapiens, Cell lines of leukemia, read-out: GI 50 Ramos BTK
[4] = test system: K562 (FLT3 negative expression, positive expression of BCR-ABL fusion protein); assay: In vitro growth inhibition (GI50), K562; assay type: cell-based; settings: Homo sapiens, Cell lines of leukemia, read-out: GI 50 K562 BCR-ABL
[5] = test system: KG-1 (expressing FGFR1OP2-FGFR1 fusion protein); assay: In vitro growth inhibition (GI50), KG-1; assay type: cell-based; settings: Homo sapiens; Cell lines of leukemia; read-out: GI 50 KG-1 FGFR1OP 2-FGFR1
[6] = test system: OCI-AML3 (NPMc+ mutant type); assay: In vitro growth inhibition (GI50), OCI-AML3; assay type: cell-based; settings: Homo sapiens, OCI-AML-3; Cell lines of leukemia; read-out: GI 50 OCI- AML3 NPMc+
[7] = test system: Kasumi-1 (c-Kit N822K mutant type); assay: In vitro growth inhibition (GI50), Kasumi-1; assay type: cell-based; settings: Homo sapiens, Cell lines of leukemia, read-out: GI 50 Kasumi-1 Kit (N822K)
Outline: as §1

U937 (FLT3 wild-type) = assay: In vitro growth inhibition (GI50), U937; assay type: cell-based; settings: Homo sapiens, U-937; Cell lines of leukemia; read-out: GI 50 U937 FLT 3(WT)

SMILES	GI50 (RS4; 11 (FLT3 wild type)) [nM]	GI50 [1] [nM]	GI50 [2] [nM]	GI50 (HL-60 (FLT3 wild type)) [nM]	GI50 [3] [nM]	GI50 [4] [nM]	GI50 [6] [nM]	GI50 (U937 (FLT3 wild-type)) [nM]	GI50 [5] [nM]	GI50 [7] [nM]
CC(C)(C)c1cc(NC(=O)Nc2ccc(-n3cnc4ccccc43)cc2)n(-c2ccccc2F)n1 [Compound 109, 1-(4-benzimidazol-1-yl-phenyl)-3-[5-tert-butyl-2-(2-fluoro-phenyl)-2H-pyrazol-3-yl]-urea]	100 to 1000	1 to 10	1 to 10	> 1000	> 1000	100 to 1000	> 1000	> 1000	> 1000	> 1000
O=C(Nc1ccc(-n2cnc3ccccc32)cc1)Nc1cc(-c2ccccc2)[nH]n1 [Compound 65, 1-(4-benzimidazol-1-yl-phenyl)-3-(5-phenyl-1H-pyrazol-3-yl)-urea]	> 1000	100 to 1000	100 to 1000	> 1000	> 1000	> 1000	> 1000	> 1000	> 1000	> 1000
O=C(Nc1ccc(-n2cnc3ccccc32)cc1)Nc1ccon1 [Compound 1, 1-(4-benzimidazol-1-yl-phenyl)-3-isoxazol-3-yl-urea]	> 1000	> 1000	> 1000	> 1000	> 1000	> 1000	> 1000	> 1000	> 1000	> 1000
CC(C)(C)c1cc(NC(=O)Nc2ccc(-n3cnc4ccccc43)c(Cl)c2)no1 [Compound 38, 1-(4-benzimidazol-1-yl-3-chloro-phenyl)-3-(5-tert-butyl-isoxazol-3-yl)-urea]	> 1000	100 to 1000	100 to 1000	> 1000	> 1000	> 1000	> 1000	> 1000	> 1000	> 1000
CC(C)(C)c1cc(NC(=O)Nc2ccc(-n3nnc4ccccc43)cc2)no1 [Compound 48, 1-(4-benzotriazol-1-yl-phenyl)-3-(5-tert-butyl-isoxazol-3-yl)-urea]	> 1000	100 to 1000	100 to 1000	> 1000	> 1000	> 1000	> 1000	> 1000	> 1000	> 1000

Now from value to compound, other results behind:

GI50 (RS4; 11 (FLT3 wild type)) [nM]	GI50 [1] [nM]	GI50 [2] [nM]	GI50 (HL-60 (FLT3 wild type)) [nM]	GI50 [3] [nM]	GI50 [4] [nM]	GI50 [6] [nM]	GI50 (U937 (FLT3 wild-type)) [nM]	SMILES	GI50 [5] [nM]	GI50 [7] [nM]
> 1000	1 to 10	1 to 10	> 1000	> 1000	> 1000	> 1000	> 1000	CC(C)(C)c1cc(N)n(C(=O)Nc2ccc(-n3cnc4cc(OCCN5CCOCC5)ccc43)cc2)n1 [Compound 119, 5-amino-3-tert-butyl-pyrazol-1-carboxylic acid {4-[5-(2-morpholin-4-yl-ethoxyl)-benzimidazol-1-yl]-phenyl}-amide]	> 1000	> 1000
> 1000	10 to 100	10 to 100	> 1000	> 1000	> 1000	> 1000	> 1000	CC(C)(C)c1cc(NC(=O)Nc2ccc(-n3cnc4ccccc43)cc2)n(-c2ccccn2)n1 [Compound 110, 1-(4-benzimidazol-1-yl-phenyl)-3-(5-tert-butyl-2-pyridin-2-yl-2H-pyrazol-3-yl)-urea]	> 1000	> 1000
> 1000	1 to 10	1 to 10	> 1000	> 1000	> 1000	> 1000	> 1000	CCOC(=O)COc1ccc2c(c1)ncn2-c1ccc(NC(=O)Nc2cc(C(C)(C)C)n[nH]2)cc1 [Compound 88, ethyl (1-{4-[3-(5-tert-butyl-2H-pyrazol-3-yl)-carbamido]-phenyl}-H-benzimidazol-5-yloxy)-acetate]	> 1000	> 1000
